Data reported in article PMC10141604, “Small-Molecule Inhibition of Androgen Receptor Dimerization as a Strategy against Prostate Cancer” (ACS Central Science, 2023).

How the values were obtained:
Du145 = assay: MTT cell viability assay, Du145; format: cell-based; conditions: 72 h
Protocol: (§1) 3-(4,5-dimethythiazol-2-yl)-2,5-diphenyl-2-H-tetrazolium bromide (MTT) colorimetric assay was employed to investigate cell viability. Cells were seeded into 96-well plates with 2-5× 10^3 cells per well (5× 10^3 cells/well for LNCaP, 22RV1, NIH-3T3, GES-1, Chang, […]
(§2) NCI-H1299, U2OS, U87) for 1 day incubation at 37 °C. Then, the cells were treated with various concentrations of compounds (22.86 nM - 50 μM) and incubated for 72 h. Then, 10 μl MTT (5 mg/ml) was added into each well and incubated for 4 h. Afterwards, 100 μl of triplex 10% SDS-0.1% HCl-phosophate-buffered saline (PBS) solutions was added into each well and incubated for overnight. The absorbance at 570 nm was measured (Eon, Bioteck, Winooski, VT). […]

Solubility (statement) = format: physicochemical
AR LBD dimerization = target: T1, AR LBD dimerization (Homo sapiens, UniProt P10275); assay: Acceptor photobleaching FRET microscopy assay in HEK293T cells; format: cell-based; conditions: 10 μM, 10 nM DHT
T1 construct: LBD residues (613 -920); expressed in transfected cells; host or cells: HEK293T
Protocol: (22.86 nM - 50 μM). After another 24 h incubation, the luciferase activities were determined by the Dual -Glo Luciferase system (#E1910, Promega) according to the […]
Acceptor Photobleaching Fluorescence Resonance Energy Transfer (FRET) […]
The pCMV-cyan fluorescent protein (CFP, #D2623) and pCMV -yellow fluorescent protein (YFP, #D2716) plasmids were purchased from Beyotime Biotechnology. We constructed pCMV -YFP-(AR LBD) and pCMV -(AR LBD)-CFP by cloning human AR LBD residues (613 -920) into the fluorescent protein vector using seamless cloning kit (#C112-01, CloneExpress II, Vazyme). HEK293T (1× 10^5 cells/well) cells were cultured in 5% CSS DMEM media in 12-well plate with glass coverslips. The next day, ce lls were transfected with 400 ng pCMV -YFP-(AR LBD), 400 ng pCMV -(AR LBD) -CFP together with HG -Trans Gene TM transfection reagent (#TG-10012, Health & Gene™). Free YFP and CFP proteins were transfected together as control. […]
The FRET assay was then tested by Olympus FV1000 equipped with a UPlanSApo 60× /1.35 NA oil objective. CFP was detected using 405 nm excitation while YFP was excited using 515 nm at moderate laser power, and the emission was detected using a 480-495 nm bandpass emission filter and 535-565 nm bandpass emission filter, respectively.
The first pair of CFPbefore and YFPbefore was collected. […] The apparent FRET efficiency was calculated after background […]

[1] = tested on: endogenous PSA and AR in LNCaP cells; assay: Western blot of PSA and AR in LNCaP cells; format: cell-based; conditions: 10 nM DHT, 48 h
Protocol: individually, and all in the presence of 10 nM DHT and incubated for 48 h. Then, the cells were harvested, followed by separating the cell lysate using 10% SDS-PAGE and electro-transfer to a polyvinylidene fluoride (PVDF) membrane (Bio -Rad). Blocking buffer (#P0023B, Beyotime Biotechnology) were used to block the membranes. After 0.5
h incubation at room temperature, each membrane was further incubated with specific
Lamin B1, #AF1408, Beyotime Biotechnology) and then the corresponding secondary antibody (HRP-conjugated Goat Anti-Rabbit IgG, # D110058, Sangon Biotech). The Image J program was performed for quantitative analysis of the immunoreactive bands.

PC3 = assay: MTT cell viability assay, PC3; format: cell-based; conditions: 72 h
Protocol: as §1, §2

AR LBP = target: T2, AR LBP (Rattus norvegicus, UniProt P15207); assay: Competitive ligand-binding assay (PolarScreen AR competitor assay)
T2 construct: purchased Invitrogen Life Technologies A15880
Protocol: Competitive Ligand Binding Assay
The binding affinities of M17 and M17-B15 to the LBP of AR LBD were determined
using PolarScreen™ Androgen Receptor Competitor Assay Kit (#A15880, Invitrogen Life
Technologies) according to the user manual. […]

T2 sequence (P15207 651-882 limits assumed): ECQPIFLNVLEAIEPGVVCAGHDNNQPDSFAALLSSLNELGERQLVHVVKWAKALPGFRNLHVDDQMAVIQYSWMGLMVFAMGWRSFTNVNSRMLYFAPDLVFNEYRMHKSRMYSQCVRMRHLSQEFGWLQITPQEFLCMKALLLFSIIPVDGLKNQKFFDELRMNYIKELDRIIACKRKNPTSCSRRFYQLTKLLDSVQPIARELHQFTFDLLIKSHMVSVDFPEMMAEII
T1 sequence (P10275 613-920): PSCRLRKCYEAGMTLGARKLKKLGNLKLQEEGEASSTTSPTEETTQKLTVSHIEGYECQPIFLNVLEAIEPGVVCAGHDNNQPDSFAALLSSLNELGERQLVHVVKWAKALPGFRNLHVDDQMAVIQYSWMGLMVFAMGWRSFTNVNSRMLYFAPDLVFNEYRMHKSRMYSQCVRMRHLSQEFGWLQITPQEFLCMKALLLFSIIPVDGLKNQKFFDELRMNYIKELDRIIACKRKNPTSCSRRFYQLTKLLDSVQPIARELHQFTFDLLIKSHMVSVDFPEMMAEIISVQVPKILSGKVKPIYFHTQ

## CC(=O)Cc1nsc(NC(=O)c2cc(-c3cccc(C(F)(F)F)c3)oc2C)n1 [Compound M17-B15]
Du145
  inhibition on the cell viability of Du145: does not show obvious inhibition
Solubility (statement)
  solubility: poor solubility
AR LBD dimerization
  FRET efficiency (AR LBD dimerization): lower FRET efficiency
[1]; LNCaP
  AR levels (Western blot): does not affect
[1]; LNCaP, 0.1, 1, 10 μM
  endogenous PSA production (Western blot): remarkably inhibited
PC3
  inhibition on the cell viability of PC3: does not show obvious inhibition
AR LBP
  binding to the conventional LBP: does not target the LBP
